Source: US20060222707A1 (priority 2005, published 2006)

Assay: Small volume in vitro release test in 50 ml 0.1N HCl
Format: physicochemical
Settings: 37° C., 150 rpm
Description: The formulations were tested for their small volume in vitro release characteristics in 50 ml 0.1N HCl at 37° C. and 150 rpm using the following procedure: III. Instrumentation (or Equivalent) a. Automated Dissolution System comprising: Hanson SR8 Plus Test Station Hanson Auto Plus Maximiser System Controller Hanson Auto Plus MultiFill Fraction Collector b. HPLC System comprising: pump—Merck Hitachi L-7100 autoinjector—Merck Hitachi L-7200 column oven—Merck Hitachi L-7300 detector—Merck Hitachi L-7400 interface and integration software—Merck Hitachi D-7000
0.1N HCl Preparation Dilute 8.5 ml HCl 37% to 1 liter with purified water. Procedure Place one weighed capsule in each vessel containing 0.1N HCl and immediately operate the apparatus for 30 min. Unless otherwise specified, 3 ml samples are withdrawn from each vessel and immediately filtered through PTFE membranes at 15 and 30 min.
The small volume was chosen as a model of the conditions in a fasted stomach.

dissolution under small volume conditions (in words): no dissolution at all
Compound: CC(C)OC(=O)C(C)(C)Oc1ccc(C(=O)c2ccc(Cl)cc2)cc1 [Micronized Fenofibrate]
